# Experimental data published in paper PMC10022191, “Safety, tolerability, pharmacokinetics, and antiviral activity of the novel core protein allosteric modulator ZM-H1505R (Canocapavir) in chronic hepatitis B patients: a randomized multiple-dose escalation trial” (BMC Medicine, 2023).
# Molecular target: genotype D HBV
# Experiment: primary human hepatocyte (PHH) assay, extracellular HBV DNA by qPCR
# Procedure: To determine the anti-HBV activity of ZM-H1505R, the primary human hepatocyte (PHH) assay was performed in vitro. One day after infection with genotype D HBV, ZM-H1505R was added to the culture medium of PHH. The culture medium supplemented with ZM-H1505R was changed every two days. The culture supernatants were collected, of which the extracellular HBV DNA content was measured by qPCR.
compound,measurement,setting,value
O=C1CO[C@H](c2cn(-c3ccc(Br)cc3)nc2-c2ccc(F)cc2)N1CCc1ccc2[nH]c(=O)[nH]c2c1 [Canocapavir],protein binding-adjusted HBV DNA EC50,protein-binding adjusted,0.135 µg/mL
same,protein binding-adjusted HBV DNA EC90,protein-binding adjusted,0.937 µg/mL
same,EC50,"read-out: EC50, inhibition of extracellular HBV DNA generation, PHH infected with genotype D HBV",12.3 nM
same,EC90,"read-out: EC90, inhibition of extracellular HBV DNA generation, PHH infected with genotype D HBV",83.3 nM
